The assay concerns the target T1, Sortase family protein (Staphylococcus aureus, UniProt Q9S446).
T1 sequence (Q9S446 whole entry): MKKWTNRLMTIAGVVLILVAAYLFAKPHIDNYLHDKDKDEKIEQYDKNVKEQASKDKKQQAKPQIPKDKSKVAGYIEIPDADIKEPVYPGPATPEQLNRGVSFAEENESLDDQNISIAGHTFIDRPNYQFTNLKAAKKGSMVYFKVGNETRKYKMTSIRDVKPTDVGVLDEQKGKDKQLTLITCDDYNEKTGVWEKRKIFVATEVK
The assay can be described thus: Inhibition of Staphylococcus aureus sortase A after 1 hr in the presence of fluorescent peptide […]-QALPETGEE-Edans by fluorimetry.

Counter-ions that a name gives are not always drawn.

For the molecule `O=C(O)c1cc[c]([Hg][OH])cc1` [para-(Hydroxymercury)benzoic acid sodium salt], the IC50 – broadly, the concentration at which inhibition is half-maximal – was determined as 111 µM.

For the origin of these results see BindingDB's records for doi:10.1021/np9005629 (Seoul National University, 2010).
